Measured values published in PubChem BioAssay (NCI).
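Cultured in 96-well plates, cells were exposed to test compound for 48 hours across five concentrations. GI50 marks 50% less growth. TGI is the concentration that stops growth completely.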

Columns and labels:
Assay in all cases: growth of human tumour cells (NCI), 48 h
[1] = tested on: MDA-MB-231 breast
[2] = tested on: UACC-257 melanoma
[3] = tested on: A549 NSCLC
[4] = tested on: SW-620 colon
[5] = tested on: HOP-92 NSCLC
[6] = tested on: HS 578T breast
[7] = tested on: SF-295 CNS
[8] = tested on: NCI-H460 lung
[9] = tested on: CAKI-1 renal
[10] = tested on: BT-549 breast

Structure (SMILES) | TGI [1] | TGI [2] | TGI [3] | TGI [4] | TGI [5] | TGI [6] | TGI [7] | TGI [8] | TGI [9] | TGI [10] | GI50 [1] | GI50 [2] | GI50 [3] | GI50 [4] | GI50 [5] | GI50 [6] | GI50 [7] | GI50 [8] | GI50 [9] | GI50 [10]
CCCCCCCCSC1=C(Cl)C(=O)C(OC)=C(OC)C1=O | 29 µM | 21.4 µM | 48.4 µM | 84 µM | 35.1 µM | 66.6 µM | 47.4 µM | 69.5 µM | 34.7 µM | 31.4 µM |  |  |  |  |  |  |  |  |  | 
O=C(O)c1ccc(CNCc2ccccc2)cc1 | > 100 µM | > 100 µM | > 100 µM | > 100 µM | > 100 µM | > 100 µM | > 100 µM | > 100 µM | > 100 µM | > 100 µM |  |  |  |  |  |  |  |  |  | 
O=c1[nH]c(O)c(C=Nc2ccc(-c3nc4ccccc4o3)cc2)c(=O)[nH]1 | > 100 µM | > 100 µM | > 100 µM | > 100 µM | > 100 µM | > 100 µM | 68.9 µM | > 100 µM | > 100 µM | > 100 µM | 29.2 µM | 58.4 µM | 74.9 µM | 40.6 µM | > 100 µM | > 100 µM | 23.7 µM | > 100 µM | 33.1 µM | > 100 µM
C=CC12CCN(CC1)C(C(O)c1ccnc3ccc(OC)cc13)C2 (stereo not given) | > 100 µM | > 100 µM | > 100 µM | > 100 µM | > 100 µM | > 100 µM | > 100 µM | > 100 µM | > 100 µM | > 100 µM | > 100 µM | 74.2 µM | > 100 µM | > 100 µM | 35.2 µM | > 100 µM | > 100 µM | > 100 µM | > 100 µM | > 100 µM
NNc1ncnc2nc[nH]c12 | 31.7 µM | > 100 µM | > 38.6 µM | > 100 µM | 55.4 µM | > 70 µM | > 72.6 µM | 51.6 µM | 18.3 µM | > 94.3 µM | 2.92 µM | 57.6 µM | 4.94 µM | 3.91 µM | 4 µM | 7.71 µM | 3.95 µM | 5.58 µM | 0.793 µM | 4.22 µM
O=C(Nc1nc(-c2c[nH]c3ccccc23)cs1)c1n[nH]c(=O)c2ccccc12 | > 100 µM | > 100 µM | 83.6 µM | > 100 µM | > 100 µM | 55 µM | 21.9 µM | > 36.8 µM | > 62.3 µM | > 81.2 µM | 25.7 µM | 38.4 µM | 1.57 µM | 1.91 µM | > 30.6 µM | 5.52 µM | 1.55 µM | 0.451 µM | 2.44 µM | 3.89 µM
